Values after ≈ are worked out from the molar mass of the structure shown. Like-named read-outs stand apart in the source and are kept apart here.
Legend:
A. baumannii CDC-0036 = assay: microbe, parasite or virus in culture; assay type: cell-based; settings: Acinetobacter baumannii
A. baumannii PBP2 = A. baumannii PBP2 (Acinetobacter baumannii, UniProt D0C8Z9); assay: Bocillin-FL competition binding via gel filtration, A. baumannii PBP2
Procedure, shortened: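 Competitive equilibrium binding; reporter Bocillin-FL. PBP + inhibitor (titration) pre-incubated → Bocillin-FL, 15 min → gel filtration → fluorescence. EC50 from Hill fit of fraction bound vs [inhibitor].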

[1] = target: T1, PBP3 from Pseudomonas aeruginosa (PAO1) (Pseudomonas aeruginosa, UniProt G3XD46); assay: Bocillin-FL fluorescence polarization competition binding, P. aeruginosa PBP3; settings: Binding affinity to P. aeruginosa PBP3; fluorescence polarization competition binding assay using Bocillin-FL; read-out: P. aeruginosa PBP3 Potency
T1 construct: made in house
T1 sequence (G3XD46 whole entry): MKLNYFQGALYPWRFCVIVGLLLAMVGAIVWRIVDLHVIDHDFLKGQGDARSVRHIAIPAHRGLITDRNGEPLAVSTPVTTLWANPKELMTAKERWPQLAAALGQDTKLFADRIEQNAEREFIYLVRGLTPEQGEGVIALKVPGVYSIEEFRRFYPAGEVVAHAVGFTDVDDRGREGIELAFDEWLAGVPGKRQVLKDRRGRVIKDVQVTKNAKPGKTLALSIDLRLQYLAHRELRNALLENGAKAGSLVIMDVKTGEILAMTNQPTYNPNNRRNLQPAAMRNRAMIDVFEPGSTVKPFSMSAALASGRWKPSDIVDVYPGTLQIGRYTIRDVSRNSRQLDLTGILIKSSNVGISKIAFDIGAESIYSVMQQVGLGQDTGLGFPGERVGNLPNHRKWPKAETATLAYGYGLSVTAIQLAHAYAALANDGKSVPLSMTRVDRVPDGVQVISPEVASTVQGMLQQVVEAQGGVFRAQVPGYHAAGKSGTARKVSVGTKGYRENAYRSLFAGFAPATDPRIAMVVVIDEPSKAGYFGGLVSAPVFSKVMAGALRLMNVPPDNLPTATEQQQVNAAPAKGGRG
Procedure, shortened: (§1)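 Purified PBP was preincubated with inhibitor (E. coli PBP3 1.5 μM, 30 min; P. aeruginosa PBP3 0.75 μM, A. baumannii PBP3 0.2 μM and PBP1a 1 μM, 15 min), then Bocillin-FL (0.1 μM; 0.05 μM for PBP1a) added and FP read up to 60 min. EC50 = 50% loss of bound probe.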

[2] = target: T2, PBP3 from Acinetobacter baumannii (ATCC 19606) (Acinetobacter baumannii, UniProt A0ABX6CK25); assay: Bocillin-FL fluorescence polarization competition binding, A. baumannii PBP3; settings: fluorescence polarization competition binding assay using Bocillin-FL; read-out: A. baumannii PBP3 Potency
T2 sequence (A0ABX6CK25 64-610): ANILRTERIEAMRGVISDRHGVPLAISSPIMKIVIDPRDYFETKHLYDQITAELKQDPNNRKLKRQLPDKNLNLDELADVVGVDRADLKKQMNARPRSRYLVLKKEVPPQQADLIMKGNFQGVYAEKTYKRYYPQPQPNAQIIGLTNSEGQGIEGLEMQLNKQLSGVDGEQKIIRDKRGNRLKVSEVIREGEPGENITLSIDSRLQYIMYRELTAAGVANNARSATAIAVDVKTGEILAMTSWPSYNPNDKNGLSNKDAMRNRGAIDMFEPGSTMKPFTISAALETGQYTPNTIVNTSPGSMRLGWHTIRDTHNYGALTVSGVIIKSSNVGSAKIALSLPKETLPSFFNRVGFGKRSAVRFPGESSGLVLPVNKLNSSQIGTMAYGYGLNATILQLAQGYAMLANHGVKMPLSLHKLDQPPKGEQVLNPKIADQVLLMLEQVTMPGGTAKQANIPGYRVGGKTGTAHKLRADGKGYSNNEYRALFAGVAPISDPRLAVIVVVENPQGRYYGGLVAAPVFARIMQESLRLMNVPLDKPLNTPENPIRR
Procedure, shortened: as §1

A. baumannii CDC-0045 = assay: microbe, parasite or virus in culture; assay type: cell-based; settings: Acinetobacter baumannii
[3] = test system: P. aeruginosa (ΔmexAB-oprM); assay: Broth microdilution MIC in iron-depleted CAMHB (IDM); assay type: cell-based; settings: Pseudomonas aeruginosa; iron-depleted CAMHB (IDM); […]; read-out: Minimum inhibitory concentration, P. aeruginosa ΔmexAB-oprM
P. aeruginosa CDC-0110 = assay: microbe, parasite or virus in culture; assay type: cell-based; settings: Pseudomonas aeruginosa, CDC0110, read-out: Minimum inhibitory concentration, P. aeruginosa CDC-0110
A. baumannii ATCC 19606 = assay: microbe, parasite or virus in culture; assay type: cell-based; settings: Acinetobacter baumannii
[4] = CDC0036, read-out: MIC, A. baumannii CDC-0036
[5] = CDC0045, read-out: MIC, A. baumannii CDC-0045
[6] = ATCC19606, read-out: MIC, A. baumannii ATCC 19606

Sequence of A. baumannii PBP2 (D0C8Z9 whole entry): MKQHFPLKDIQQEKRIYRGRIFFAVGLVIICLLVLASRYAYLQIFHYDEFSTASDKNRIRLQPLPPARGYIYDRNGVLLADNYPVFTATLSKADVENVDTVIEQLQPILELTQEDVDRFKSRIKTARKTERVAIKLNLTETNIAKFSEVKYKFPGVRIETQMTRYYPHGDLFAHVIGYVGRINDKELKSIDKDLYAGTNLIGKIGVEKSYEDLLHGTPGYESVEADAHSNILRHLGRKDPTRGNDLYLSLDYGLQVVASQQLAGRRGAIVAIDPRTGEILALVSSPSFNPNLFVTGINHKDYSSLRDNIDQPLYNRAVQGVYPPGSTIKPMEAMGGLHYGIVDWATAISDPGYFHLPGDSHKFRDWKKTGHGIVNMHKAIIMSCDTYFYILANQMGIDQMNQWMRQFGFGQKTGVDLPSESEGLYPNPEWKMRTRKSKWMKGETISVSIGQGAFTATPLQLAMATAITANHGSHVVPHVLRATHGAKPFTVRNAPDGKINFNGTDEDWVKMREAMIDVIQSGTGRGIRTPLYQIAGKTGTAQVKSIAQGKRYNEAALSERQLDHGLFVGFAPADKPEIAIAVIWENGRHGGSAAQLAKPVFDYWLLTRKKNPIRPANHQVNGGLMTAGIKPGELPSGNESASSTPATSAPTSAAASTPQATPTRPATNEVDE

| Compound | MIC (A. baumannii CDC-0036; CDC0036, read-out: Minimum inhibitory concentration (MIC), A. baumannii CDC-0036) [µg/mL] | EC50 (A. baumannii PBP2) [µM] | IC50 [1] [µM] | IC50 [2] [µM] | MIC (A. baumannii CDC-0045; CDC0045, read-out: Minimum inhibitory concentration (MIC), A. baumannii CDC-0045) [µg/mL] | MIC [3] [µg/mL] | MIC (P. aeruginosa CDC-0110) [µg/mL] | MIC (A. baumannii ATCC 19606; ATCC19606, read-out: Minimum inhibitory concentration (MIC), A. baumannii ATCC 19606) [µg/mL] | MIC (A. baumannii CDC-0036; [4]) [µg/mL] | MIC (A. baumannii CDC-0045; [5]) [µg/mL] | MIC (A. baumannii ATCC 19606; [6]) [µg/mL] |
| --- | --- | --- | --- | --- | --- | --- | --- | --- | --- | --- | --- |
| O=C(O)c1c(F)ccc2c1OB(O)[C@@H](NC(=O)C(NC(=O)N1CCN(C3CCN(C(=O)Nc4ccc(F)c(O)c4F)CC3)C(=O)C1=O)c1cc(F)c(O)c(O)c1Cl)C2 (stereo partly drawn) [Example 486, (3R)-3-(2-(2-chloro-5-fluoro-3,4-dihydroxyphenyl)-2-(4-(1-((2,4-difluoro-3-hydroxyphenyl)carbamoyl)piperidin-4-yl)-2,3-dioxopiperazine-1-carboxamido)acetamido)-7-fluoro-2-hydroxy-3,4-dihydro-2H-benzo[e][1,2]oxaborinine-8-carboxylic acid] | < 1 | < 10 | < 10 | < 10 | < 1 | < 1 | < 1 | < 1 | – | – | – |
| O=C(O)c1c(F)ccc2c1OB(O)[C@@H](NC(=O)[C@H](NC(=O)N1CCN(C3CCN(C(=O)Nc4cc(O)cc(F)c4)CC3)C1=O)c1cc(F)c(O)c(O)c1Cl)C2 (single isomer, unassigned) [Example 450] | – | < 10 | < 10 | < 10 | – | < 1 | < 1 | – | < 1 | < 1 | < 1 |
| O=C(O)c1c(F)ccc2c1OB(O)[C@@H](NC(=O)[C@H](NC(=O)N1CCN(C3CCN(C(=O)c4ccc(F)c(O)c4)CC3)C1=O)c1cc(F)c(O)c(O)c1Cl)C2 (single isomer, unassigned) [Example 435] | – | < 10 | < 10 | 10 to 50 | – | < 1 | < 1 | – | < 1 | < 1 | < 1 |
| O=C(O)c1c(F)ccc2c1OB(O)[C@@H](NC(=O)C(NC(=O)N1CCN(C3CCN(C(=O)Nc4cc(O)ccc4Cl)CC3)C(=O)C1=O)c1cc(F)c(O)c(O)c1Cl)C2 (stereo partly drawn) [Example 483, (3R)-3-(2-(2-chloro-5-fluoro-3,4-dihydroxyphenyl)-2-(4-(1-((2-chloro-5-hydroxyphenyl)carbamoyl)piperidin-4-yl)-2,3-dioxopiperazine-1-carboxamido)acetamido)-7-fluoro-2-hydroxy-3,4-dihydro-2H-benzo[e][1,2]oxaborinine-8-carboxylic acid] | – | 10 to 50 | < 10 | < 10 | – | < 1 | 2 to 4 (≈ 2.39 to 4.79 µM) | – | 2 to 4 (≈ 2.39 to 4.79 µM) | < 1 | < 1 |
| O=C(O)c1c(F)ccc2c1OB(O)[C@@H](NC(=O)[C@H](NC(=O)N1CCN(C3CCN(C(=O)Nc4cc(O)ccc4Cl)CC3)C1=O)c1cc(F)c(O)c(O)c1Cl)C2 (single isomer, unassigned) [Example 448] | – | < 10 | < 10 | < 10 | – | < 1 | < 1 | – | < 1 | < 1 | < 1 |
| O=C(O)c1c(F)ccc2c1OB(O)[C@@H](NC(=O)[C@H](NC(=O)N1CCN(C3CCN(C(=O)Nc4c(F)ccc(O)c4Cl)CC3)C1=O)c1cc(F)c(O)c(O)c1Cl)C2 (single isomer, unassigned) [Example 455] | – | < 10 | < 10 | < 10 | – | < 1 | < 1 | – | < 1 | < 1 | < 1 |
| O=C(O)c1c(F)ccc2c1OB(O)[C@@H](NC(=O)[C@H](NC(=O)N1CCN(C3CCN(C(=O)c4cc(O)cc(F)c4)CC3)C1=O)c1cc(F)c(O)c(O)c1Cl)C2 (single isomer, unassigned) [Example 436] | – | < 10 | < 10 | < 10 | – | < 1 | < 1 | – | < 1 | < 1 | < 1 |

— patent US20240270762A1, “PENICILLIN-BINDING PROTEIN INHIBITORS” (priority 2021, published 2024)
